Experimental data reported in US8563717B2, “Adenine derivatives” (GlaxoSmithKline LLC, priority 2008, dated 2013).
Structures can show the parent of a compound that is named as a salt.

Legend:
Assay type in all cases: cell-based
[1] = test system: Interferon-α; assay: Induction of Interferon-α using cryopreserved human PBMCs; settings: PBMC, 24 h incubation, normalised to 1 uM resiquimod, read-out: mean pEC50 for induction of IFN-α (converted)
How it was run: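 Cryopreserved healthy-donor PBMCs at 1×10^6 cells/ml in RPMI/10% FCS with 1000 units/ml IFN-gamma, exposed 24 h at 37 °C to 11-point two-fold compound dilutions. Supernatant IFN-α quantified by MSD electrochemiluminescence immunoassay; pEC50 from 4-parameter fit, normalised to 1 uM resiquimod and DMSO.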

[2] = test system: TNF-α; assay: Induction of TNF-α using fresh human PBMCs; settings: PBMC, 24 hr incubation, relative to 2 μM resiquimod control, read-out: mean pEC50 for induction of TNF-α (converted)
Method: (§1) Assay for the Induction of Interferon-α and TNF-α Using Fresh Human Peripheral Blood Mononuclear Cells (PBMCs)
(§2) Compounds were dissolved and serially diluted in DMSO to give 100× the required concentration range using a Biomek 2000. 1 ul of test compound was transferred into 96-well tissue culture plates using a Biomek FX. Each compound was assayed in duplicate for each donor. Each plate contained a dilution series of the TLR7/8 agonist resiquimod as standard and Column 11 contained 1 μl of 200 μM resiquimod (giving a 2 μM final concentration, used to define the approximate maximal response to resiquimod).
(§3) Blood samples from two human donors were collected into sodium heparin (10 U/ml). 25 ml volumes of whole blood were overlaid onto 15 mls Histopaque in Leucosep tubes which were centrifuged at 800 g for 20 min and the band at the plasma/histopaque interface carefully removed. The collected cells were centrifuged at 2500 rpm for 10 min. and the pellet resuspended in 10 ml of media (RPMI 1640 (Low endotoxin) supplemented with 10% v/v foetal calf serum (FCS, low endotoxin) 100 U/ml penicillin G, 100 μg/ml streptomycin, 10 mM L-glutamine and 1× non-essential amino acids). A 1:20 dilution of the cells was prepared using trypan blue & the cells counted using a haemocytometer. The PBMCs were diluted to give a final concentration of 2×10^6/ml and 100 ul of this cells suspension was added to wells containing 1 μl of diluted test compound.
(§4) The cell preparations were incubated for 24 hr. (37° C., 95% air, 5% CO2) after which a sample of the supernatant was removed using the Biomek FX and assayed for both IFN-α and TNF-α using the MSD (Mesoscale Discovery) electrochemiluminescence assay platform. The IFN-α assay was carried out similarly to that described above. The TNF-α assay was carried out as per kit instructions (Cat No K111BHB).
(§5) Cytokine released was expressed as a percentage of the 2 μM resiquimod control (column 11). This percentage was plotted against compound concentration and the pEC50 for the response determined by non-linear least squares curve fitting. For the IFN-α responses generally a 4 parameter logistic model was selected. For the TNF responses where a clear maximum response was obtained (i.e. a well defined plateau in the response was observed) then a 4 parameter model was generally used. If the upper asymptote of the curve wasn't well defined then the curve fitting was generally constrained to a maximal response of 100% (i.e., to the response to 2 μM resiquimod) or to the response of the highest concentration tested if this was greater than the resiquimod response. Some curves were bell shaped for one or both cytokines and the cytokine data on the down slope of the bell shaped response (i.e. concentrations above those giving the maximal response) were generally excluded from the fit, usually with the exception of the concentration immediately above the peak response. Curve fitting thus concentrated on the up slope of the dose response curve.

[3] = test system: Interferon-α; assay: Induction of Interferon-α using fresh human PBMCs; settings: PBMC, 24 hr incubation, relative to 2 μM resiquimod control, read-out: mean pEC50 for induction of IFN-α (converted)
Method: as §1, §2, §3, §4, §5

| EC50 [2] [nM] | EC50 [3] [nM] | Compound | EC50 [1] [nM] |
| --- | --- | --- | --- |
| > 1000 | < 1 | CCCCOc1nc(N)c2[nH]c(=O)n(CCC3CCCN(C4CCCCC4)C3)c2n1 (centres unmarked) [Example 38, 6-Amino-2-(butyloxy)-9-[2-(1-cyclohexyl-3-piperidinyl)ethyl]-7,9-dihydro-8H-purin-8-one] | < 1580 |
| > 31.6 | < 0.316 | CCC[C@H](C)Oc1nc(N)c2[nH]c(=O)n(CCC3CCCN(CC)C3)c2n1 (stereo partly drawn) [Example 41, 6-Amino-9-[2-(1-ethyl-3-piperidinyl)ethyl]-2-{[(1S)-1-methylbutyl]oxy}-7,9-dihydro-8H-purin-8-one] | < 1580 |
| > 1000 | < 100 | CC(C)Oc1nc(N)c2[nH]c(=O)n(CCCCC3CCNCC3)c2n1 [Example 135, 6-Amino-2-[(1-methylethyl)oxy]-9-[4-(4-piperidinyl)butyl]-7,9-dihydro-8H-purin-8-one] | < 1580 |
| > 31.6 | < 0.316 | CCC[C@H](C)Oc1nc(N)c2[nH]c(=O)n(CCCCC3CCCN(CC)C3)c2n1 (stereo partly drawn) [Example 66, 6-Amino-9-[4-(1-ethyl-3-piperidinyl)butyl]-2-{[(1S)-1-methylbutyl]oxy}-7,9-dihydro-8H-purin-8-one] | < 1580 |
| > 31.6 | < 0.316 | CCC[C@H](C)Oc1nc(N)c2[nH]c(=O)n(CCCCC3CCN(CC)CC3)c2n1 [Example 119, 6-Amino-9-[4-(1-ethyl-4-piperidinyl)butyl]-2-{[(1S)-1-methylbutyl]oxy}-7,9-dihydro-8H-purin-8-one] | < 1580 |
| – | – | CCCCOc1nc(N)c2[nH]c(=O)n(CCC3CCCN(CC(C)C)C3)c2n1 (centres unmarked) [Example 34, 6-Amino-2-(butyloxy)-9-{2-[1-(2-methylpropyl)-3-piperidinyl]ethyl}-7,9-dihydro-8H-purin-8-one] | < 1580 |
| – | – | CCCCOc1nc(N)c2[nH]c(=O)n(CCCCCC3CCN(CCC4CCCCC4)CC3)c2n1 [Example 131, 6-Amino-2-(butyloxy)-9-{5-[1-(2-cyclohexylethyl)-4-piperidinyl]pentyl}-7,9-dihydro-8H-purin-8-one hydrochloride] | < 1580 |
| – | – | CCCCOc1nc(N)c2[nH]c(=O)n(CCC3CCN(C4CCCC4)CC3)c2n1 [Example 86, 6-Amino-2-(butyloxy)-9-[2-(1-cyclopentyl-4-piperidinyl)ethyl]-7,9-dihydro-8H-purin-8-one] | < 1580 |
| – | – | CCCCOc1nc(N)c2[nH]c(=O)n(CCCCC3CCN(CC(C)C)CC3)c2n1 [Example 111, 6-Amino-2-(butyloxy)-9-{4-[1-(2-methylpropyl)-4-piperidinyl]butyl}-7,9-dihydro-8H-purin-8-one] | < 1580 |
| – | – | CCCCOc1nc(N)c2[nH]c(=O)n(CCCC3CCCN(CCCC)C3)c2n1 (centres unmarked) [Example 47, 6-Amino-2-(butyloxy)-9-[3-(1-butyl-3-piperidinyl)propyl]-7,9-dihydro-8H-purin-8-one] | < 1580 |
| – | – | CCCCOc1nc(N)c2[nH]c(=O)n(CCCCCC3CCN(CC4CCCC4)CC3)c2n1 [Example 130, 6-Amino-2-(butyloxy)-9-{5-[1-(cyclopentylmethyl)-4-piperidinyl]pentyl}-7,9-dihydro-8H-purin-8-one hydrochloride] | < 1580 |
| – | – | CCCCOc1nc(N)c2[nH]c(=O)n(CCCCC3CCN(C4CCCC4)CC3)c2n1 [Example 114, 6-Amino-2-(butyloxy)-9-[4-(1-cyclopentyl-4-piperidinyl)butyl]-7,9-dihydro-8H-purin-8-one] | < 1580 |
| – | – | CCCCOc1nc(N)c2[nH]c(=O)n(CCC3CCCN(CCC)C3)c2n1 (centres unmarked) [Example 31, 6-Amino-2-(butyloxy)-9-[2-(1-propyl-3-piperidinyl)ethyl]-7,9-dihydro-8H-purin-8-one] | < 1580 |
| – | – | CCCCOc1nc(N)c2[nH]c(=O)n(CCCC3CCCCN3CCC(C)C)c2n1 (centres unmarked) [Example 19, 6-Amino-2-(butyloxy)-9-{3-[1-(3-methylbutyl)-2-piperidinyl]propyl}-7,9-dihydro-8H-purin-8-one] | < 1580 |
| – | – | CCCCOc1nc(N)c2[nH]c(=O)n(CC3CCCN(CCC(C)C)C3)c2n1 (centres unmarked) [Example 27, 6-Amino-2-(butyloxy)-9-{[1-(3-methylbutyl)-3-piperidinyl]methyl}-7,9-dihydro-8H-purin-8-one] | < 1580 |
| – | – | CCCCNc1nc(N)c2[nH]c(=O)n(CCCCC3CCN(CC)CC3)c2n1 [Example 121, 6-Amino-2-(butylamino)-9-[4-(1-ethyl-4-piperidinyl)butyl]-7,9-dihydro-8H-purin-8-one] | < 1580 |
| – | – | CCCCOc1nc(N)c2[nH]c(=O)n(CCCCCCC3CCN(C(C)C)CC3)c2n1 [Example 134, 6-Amino-2-(butyloxy)-9-{6-[1-(1-methylethyl)-4-piperidinyl]hexyl}-7,9-dihydro-8H-purin-8-one] | < 1580 |
| – | – | CCCCOc1nc(N)c2[nH]c(=O)n(CCC3CCN(C4CCCCC4)CC3)c2n1 [Example 88, 6-Amino-2-(butyloxy)-9-[2-(1-cyclohexyl-4-piperidinyl)ethyl]-7,9-dihydro-8H-purin-8-one] | < 1580 |
| – | – | CCCCOc1nc(N)c2[nH]c(=O)n(CCCC3CCCCN3CC3CCCC3)c2n1 (centres unmarked) [Example 21, 6-Amino-2-(butyloxy)-9-{3-[1-(cyclopentylmethyl)-2-piperidinyl]propyl}-7,9-dihydro-8H-purin-8-one] | < 1580 |
| – | – | CCCCOc1nc(N)c2[nH]c(=O)n(CCCC3CCN(C(CC)CC)CC3)c2n1 [Example 98, 6-Amino-2-(butyloxy)-9-{3-[1-(1-ethylpropyl)-4-piperidinyl]propyl}-7,9-dihydro-8H-burin-8-one] | < 1580 |
| – | – | CCCCOc1nc(N)c2[nH]c(=O)n(CCCCC3CCCN(C(C)C)C3)c2n1 (centres unmarked) [Example 58, 6-Amino-2-(butyloxy)-9-{4-[1-(1-methylethyl)-3-piperidinyl]butyl}-7,9-dihydro-8H-purin-8-one] | < 1580 |
| – | – | CCCCOc1nc(N)c2[nH]c(=O)n(CCCCC3CCCN(CCCC)C3)c2n1 (centres unmarked) [Example 59, 6-Amino-2-(butyloxy)-9-[4-(1-butyl-3-piperidinyl)butyl]-7,9-dihydro-8H-purin-8-one] | < 1580 |
| – | – | CCCCOc1nc(N)c2[nH]c(=O)n(CCCCCCC3CCNCC3)c2n1 [Example 132, 6-Amino-2-(butyloxy)-9-[6-(4-piperidinyl)hexyl]-7,9-dihydro-8H-purin-8-one hydrochloride] | < 1580 |
| – | – | CCCCOc1nc(N)c2[nH]c(=O)n(CCCC3CCCCN3)c2n1 (centres unmarked) [Example 13, 6-Amino-2-(butyloxy)-9-[3-(2-piperidinyl)propyl]-7,9-dihydro-8H-purin-8-one] | < 1580 |
| – | – | CCCCOc1nc(N)c2[nH]c(=O)n(CC3CCCN(CCCC)C3)c2n1 (centres unmarked) [Example 25, 6-Amino-2-(butyloxy)-9-[(1-butyl-3-piperidinyl)methyl]-7,9-dihydro-8H-purin-8-one] | < 1580 |
| – | – | CCCCOc1nc(N)c2[nH]c(=O)n(CCCC3CCN(CCC4CCCCC4)CC3)c2n1 [Example 103, 6-Amino-2-(butyloxy)-9-{3-[1-(2-cyclohexylethyl)-4-piperidinyl]propyl}-7,9-dihydro-8H-purin-8-one] | < 1580 |
| – | – | CCCCNc1nc(N)c2[nH]c(=O)n(CCCCC3CCNCC3)c2n1 [Example 120, 6-Amino-2-(butylamino)-9-[4-(4-piperidinyl)butyl]-7,9-dihydro-8H-purin-8-one] | < 1580 |
| – | – | CCCCOc1nc(N)c2[nH]c(=O)n(CCCC3CCCN(CC)C3)c2n1 (centres unmarked) [Example 44, 6-Amino-2-(butyloxy)-9-[3-(1-ethyl-3-piperidinyl)propyl]-7,9-dihydro-8H-purin-8-one] | < 1580 |

| Compound | EC50 [2] [nM] | EC50 [3] [nM] | EC50 [1] [nM] |
| --- | --- | --- | --- |
| CCCCOc1nc(N)c2[nH]c(=O)n(CC3CCCN(CC)C3)c2n1 (centres unmarked) [Example 1, 6-Amino-2-butoxy-9-[(1-ethyl-3-piperidinyl)methyl]-7,9-dihydro-8H-purin-8-one] | > 1000 | < 100 | < 1580 |
